Reference: US20220105051A1, “COMPOUNDS FOR INCREASING MHC-I EXPRESSION AND MODULATING HISTONE DEACETYLASE ACTIVITY” (Cava Healthcare Inc., priority 2019, published 2022)
“Also recorded” adds a separate entry of the source.

Key:
MHC-I = MHC-I surface expression by flow cytometry; type: cell-based, murine; details: for induction of MHC-I expression at the cell surface: 48 hours after treatment, flow cytometry; for MHC class I upregulation: relative to DMSO
Protocol: A9 and TC-1 cell lines were trypsinized (0.05%, Gibco), washed twice with PBS (Gibco), and stained with allophycocyanin (APC) conjugated anti-mouse H-2K^b antibody (1:200, Biolegend) suspended in 150 μL of FACS buffer (PBS+2% FBS) for 20 minutes at 4° C. Cells were washed twice with PBS and re-suspended in 200 μL FACs buffer containing 1 μL of 7-aminoactinomycin (7AAD) viability stain (Biolegend). Flow cytometry was performed on the LSRII (BDBiosciences) and analysis was done using FlowJo (Flow cytometry Analysis Software).
The marine extract library was provided by Dr. Raymond J. Andersen (UBC). The marine invertebrate specimens were collected by SCUBA diving at a 40 metre depth from regions of high marine biodiversity in Papua New Guinea, Indonesia, Thailand, Sri Lanka, Dominica, Brazil, British Columbia, South Africa, and Norway 35. Previously curcuphenol was identified as the active component in one of the marine extracts showing induction of the APM, and since then two new generations of curcuphenol analogues were synthesized in the lab of Dr. Raymond Anderson. To evaluate the ability of these compounds to induce MHC-I surface expression, A9 cells were plated in 6 well plates at 10^5 cells/well and incubated for 24 hours at 37° C. in a 5% CO2 humidified atmosphere. After 24 hours the medium was removed and replaced with medium containing varying concentration of synthesized compounds (6.7 μg/mL, 20 μg/mL, 60 μg/mL). […] Following treatment, cells were incubated for 48 hours at 37° C. with 5% CO2 and humidified atmosphere. After incubation cells were subjected to flow cytometry.
Evaluation of MHC-I surface expression by flow cytometry. LMD:TAP-1 cells or A9 cells were plated in 6 well plates at a concentration of 10,000 cells per well in a 2 mL volume. The next day, cells were treated with the indicated concentrations of the compounds and incubated for 48 hours at 37° C. After incubation, the cells were trypsinized, washed and stained with APC-conjugated anti-mouse MHC-I (specifically anti-H-2K^b) antibody (Biolegend) and assessed by flow cytometry analysis.

HDAC8 = target: T1, HDAC8 (Homo sapiens, UniProt Q9BY41); experiment: Individualized HDAC assay, HDAC8; type: biochemical; details: purified enzyme; for concentration at which HDAC8 inhibition was seen: 5 to 0.02 μM tested; for HDAC8 activity at higher concentrations: up to 5 μM
T1 construct: purchased BPS Biosciences
T1 sequence (Q9BY41 1-377): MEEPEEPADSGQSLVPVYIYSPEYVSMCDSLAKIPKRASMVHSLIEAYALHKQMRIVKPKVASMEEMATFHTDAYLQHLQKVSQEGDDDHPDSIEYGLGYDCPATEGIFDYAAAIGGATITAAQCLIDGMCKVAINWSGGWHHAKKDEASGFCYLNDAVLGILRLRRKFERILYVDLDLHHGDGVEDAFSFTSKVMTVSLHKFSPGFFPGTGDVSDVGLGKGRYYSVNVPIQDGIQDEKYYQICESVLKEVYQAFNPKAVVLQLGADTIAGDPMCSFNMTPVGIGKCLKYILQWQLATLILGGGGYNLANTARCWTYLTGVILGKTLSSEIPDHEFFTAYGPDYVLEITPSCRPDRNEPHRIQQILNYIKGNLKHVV
Protocol: (§1) The activity of the curcuphenol analogues was assessed with purified HDAC enzymes from all classes I, II, and IV, as well as a select member of HDAC class III (SIRT1). HDACs 1-9 and SIRT1 were evaluated using HDAC Fluorogenic Assay Kits (BPS Biosciences). All assays were completed in black-sided clear-bottom 96 well plates (PerkinElmer), and all treatments were plated in triplicates. Treatment started at 5 μM and was two-fold diluted to a concentration 0.02 μM. The assays were measured using the Synergy HI hybrid reader (BioTek) and Gen5 software (BioTek), excitation was set to 360 nm and detection was measured at 450 nm with a gain of 100. Alternatively HDAC 10 and 11 (BPS Biosciences) were optimized for HDAC concentration using the HDAC-Glo™ I/II Assay and Screening System (Promega). Following optimization each HDAC was run following the Promega protocol in black-sided clear-bottomed 96 well plates in triplicates with same treatments listed above (PerkinElmer). Luminescence was read 30 minutes after HDAC-Glo™I/II reagent was added using the Synergy HI hybrid reader (BioTek) and Gen5 software (Bio-Tek). […] To calculate percent activity, the average of blank wells was subtracted from all treatment groups. The relative mean of activity of the HDAC being measured was determined and all wells that received treatment were divided this average, to give a percentage of activity.
(§2) To evaluate the effect of the compounds on specific HDACs, their activity was assessed with purified HDAC enzymes from all classes I, II, and IV, as well as a select member of HDAC class III (SIRT1). HDACs 1-9 and SIRT1 were evaluated using HDAC Fluorogenic Assay Kits (BPS Biosciences) following the manufacturer's recommendations. Compound treatment started at 5 μM and was two-fold diluted to a concentration 0.02 μM. Alternatively, HDAC 10 and 11 assays (BPS Biosciences) were optimized to be used with the HDAC-Glo™ I/II Assay and Screening System (Promega). The assays were measured using the Synergy HI hybrid reader (BioTek) and Gen5 software (Bio-Tek). […] To calculate the fold change in HDAC activity, the values from each treated well were divided by the relative mean of activity of the specific HDAC being measured.

HDAC5 = target: T2, HDAC5 (Homo sapiens, UniProt Q9UQL6); experiment: Individualized HDAC assay, HDAC5; type: biochemical; details: purified enzyme, 5 to 0.02 μM
T2 construct: purchased BPS Biosciences
Protocol: as §1, §2

HDAC10 = target: T3, HDAC10 (Homo sapiens, UniProt Q969S8); experiment: Individualized HDAC assay, HDAC10 (HDAC-Glo); type: biochemical; details: purified enzyme; for HDAC10 activity: 5 to 0.02 μM
T3 construct: purchased BPS Biosciences
T3 sequence (Q969S8 1-669): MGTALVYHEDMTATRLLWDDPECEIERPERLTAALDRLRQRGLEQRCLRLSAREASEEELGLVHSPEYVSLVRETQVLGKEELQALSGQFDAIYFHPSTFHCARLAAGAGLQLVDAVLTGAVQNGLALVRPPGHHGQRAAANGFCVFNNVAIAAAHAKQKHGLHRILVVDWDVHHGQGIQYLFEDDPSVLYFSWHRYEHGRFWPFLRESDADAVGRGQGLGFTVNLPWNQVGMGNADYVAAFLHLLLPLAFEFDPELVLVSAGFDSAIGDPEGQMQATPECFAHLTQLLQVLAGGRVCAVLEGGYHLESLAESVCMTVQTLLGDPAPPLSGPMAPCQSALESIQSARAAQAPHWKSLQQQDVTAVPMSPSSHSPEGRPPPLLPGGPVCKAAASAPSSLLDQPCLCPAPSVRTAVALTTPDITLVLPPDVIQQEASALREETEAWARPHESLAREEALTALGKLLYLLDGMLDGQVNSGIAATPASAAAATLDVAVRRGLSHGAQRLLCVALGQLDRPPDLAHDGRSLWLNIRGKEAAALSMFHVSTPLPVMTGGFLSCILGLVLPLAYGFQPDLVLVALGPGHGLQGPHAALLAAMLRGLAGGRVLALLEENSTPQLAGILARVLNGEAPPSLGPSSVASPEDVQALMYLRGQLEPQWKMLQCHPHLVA
Protocol: as §1, §2

T2 sequence (Q9UQL6 whole entry): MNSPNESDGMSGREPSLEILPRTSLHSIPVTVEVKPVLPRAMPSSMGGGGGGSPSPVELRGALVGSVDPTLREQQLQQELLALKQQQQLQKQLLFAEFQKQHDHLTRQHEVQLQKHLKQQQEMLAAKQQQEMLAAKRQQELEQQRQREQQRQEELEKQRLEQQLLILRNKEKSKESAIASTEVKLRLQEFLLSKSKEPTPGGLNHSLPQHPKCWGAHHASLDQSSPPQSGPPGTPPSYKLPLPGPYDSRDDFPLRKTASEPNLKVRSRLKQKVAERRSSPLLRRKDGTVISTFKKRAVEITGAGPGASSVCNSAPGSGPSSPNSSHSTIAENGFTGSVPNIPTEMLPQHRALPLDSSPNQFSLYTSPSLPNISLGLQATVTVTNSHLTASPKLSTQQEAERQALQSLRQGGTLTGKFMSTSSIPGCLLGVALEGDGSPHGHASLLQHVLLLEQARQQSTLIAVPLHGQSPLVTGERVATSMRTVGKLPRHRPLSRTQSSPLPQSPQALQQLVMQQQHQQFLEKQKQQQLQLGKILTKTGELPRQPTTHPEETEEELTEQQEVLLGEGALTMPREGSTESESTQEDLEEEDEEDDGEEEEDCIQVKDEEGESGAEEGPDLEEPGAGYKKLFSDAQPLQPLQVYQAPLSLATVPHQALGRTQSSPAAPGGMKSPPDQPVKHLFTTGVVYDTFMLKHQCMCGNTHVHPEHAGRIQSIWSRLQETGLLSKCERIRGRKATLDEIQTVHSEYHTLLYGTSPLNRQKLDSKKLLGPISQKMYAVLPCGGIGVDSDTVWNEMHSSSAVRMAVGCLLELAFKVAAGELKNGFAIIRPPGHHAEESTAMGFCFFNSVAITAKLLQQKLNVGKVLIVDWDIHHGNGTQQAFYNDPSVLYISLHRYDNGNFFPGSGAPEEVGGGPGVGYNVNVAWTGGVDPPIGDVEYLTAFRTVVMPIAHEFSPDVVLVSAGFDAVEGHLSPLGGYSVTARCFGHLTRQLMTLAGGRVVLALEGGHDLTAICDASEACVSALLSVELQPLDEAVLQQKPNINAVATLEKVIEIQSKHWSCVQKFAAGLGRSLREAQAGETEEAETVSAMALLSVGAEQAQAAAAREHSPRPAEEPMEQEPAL

Row | Structure (SMILES) | concentration of optimum MHC upregulation and live cell frequency (MHC-I; A9 cells, 48 hours) | induction of MHC-I expression at the cell surface (MHC-I; A9 cells) | MHC class I upregulation (MHC-I; A9 cells, 48 hours, 0.032, 0.064 and 0.128 μmol) | MHC class I upregulation (MHC-I; A9 cells, 48 hours, 0.055, 0.064 and 0.071 umol) | surface MHC I molecules (MHC-I; cancer cell lines in vitro) | effect on HDAC8 activity (HDAC8) | HDAC5 activity (HDAC5) | HDAC10 activity (HDAC10) | concentration at which HDAC8 inhibition was seen (HDAC8) | HDAC8 activity at higher concentrations (HDAC8) | concentration range of HDAC10 enhancement (HDAC10) | HDAC5 activity (HDAC5; listed as PO-3-97-1) | HDAC10 activity (HDAC10; listed as PO-3-97-1)
1 | CC(C)=CCC[C@H](C)c1ccc(C)cc1O [Curcuphenol, curcuphenol] | 0.064 µmol | enhances the expression of MHC-I | upregulated | upregulated | significantly increased | selectively inhibits | activates | activates | – | – | – | – | –
2 | CC(C)=CCCCc1ccc(C)cc1O [P02-113] | – | strong induction of MHC-I; also recorded: greatest consistent induction of MHC-I expression; also recorded: highest expression of MHC-I | – | – | – | act as inhibitors to HDAC8; also recorded: slight inhibition at lower concentrations | enhanced; also recorded: increase in activity levels | enhanced; also recorded: increase in activity levels | ≤ 0.3 µM | no change in HDAC8 activity | enhanced at all concentrations tested | – | –
3 | COc1ccc(C(C)CCC=C(C)C)c(O)c1 (stereo not drawn) [P03-97-1] | – | strong induction of MHC-I; also recorded: greatest consistent induction of MHC-I expression; also recorded: highest expression of MHC-I | – | – | – | act as inhibitors to HDAC8; also recorded: slight inhibition at lower concentrations | enhanced; also recorded: increase in activity levels | enhanced; also recorded: increase in activity levels | 0.02 µM | no change in activity | enhanced at all concentrations tested | enhanced | enhanced
